Values joined by “and” are separate entries in the source; they are usually repeats but may differ in a detail not shown here. Identical values can stand only once. Marks after values point to notes of the source that are not given here.
Tests used:
[1] = solvent as listed per probe; cited from earlier work
[2] = UV-vis spectral properties / extinction coefficients in aqueous buffer; type: physicochemical; details: for ε at λmax / λmax: merocyanine dyes
Experimental: Absorption spectra were recorded on a Cary 50 UV-vis spectrometer from Varian. All measurements were performed in 1 cm UV-vis disposable cuvettes (BRAND semi-micro) and air-equilibrated solutions at 25±0.1° C. A total assay volume of 1.0 mL was used for each measurement. UV-vis scan spectra were recorded using following parameters: average time 0.05 s; data interval 1 nm; scan rate 1200 nm/min; with base line correction.
(§1) Stock solutions of assayed compounds (2-5 mM) were prepared in H2O-DMSO (1:1), stored at −20° C., and diluted to 1.0 mM with buffer before use. The L-Cys stock solution (20.0 mM) was freshly prepared in buffer before the measurements. […]
For a measurement, 1000 μL of buffer and 1-50 μL of probe (1.0 mM) were mixed, and then transferred to a cuvette. Absorbance spectra (250-800 nm) were measured against a blank of the buffer. At least six concentrations of each compound were used to calculate extinction coefficients from the slope of probe concentration vs absorbance plots, using MS Excel software (Microsoft).

[3] = Cys-response screening by UV-vis (cleavage of acryloyl ester by excess Cys); details: for ε^Cys / λ^Cys: after excess Cys (100 μM), 37° C., 15 min; for SNR: from ε^Cys and ε^blank
Experimental: as §1
In the same manner, ε^Cys was determined from the solutions of probe reacted with an excess of Cys (100 μM). The reactions were performed at 37° C. (incubation time 15 min). Blank reactions were run without addition of Cys.
Spectra recorded in the presence of Cys confirmed a colorimetric response through the cleavage of acryloyl ester. […] Moreover, their spectral profiles were advantageously fulfilling the wavelength requirement for the Cys sensing application in Cedex system (340, 378, 409, 480, 512, 520, 552, 583, 629, 652, 659 and 800 nm).

[4] = Evaluation of stability (hydrolysis of probe in buffer, UV-vis); type: physicochemical; details: 25 mM HEPES pH 7.4, 15.6 μM, 5 h, ε from merocyanine analogues (LZ07: ε from Table 2)
Experimental: For a measurement, 1000 μL of buffer and 16 μL of probe (1.0 mM) were mixed, and then incubated at +4° C. and at +37° C. for 5 h. The resulting mixtures were transferred to a cuvette, and the absorbance (250-800 nm) was measured. Each measurement was done in triplicate.
[…] Solutions of each probe were monitored by UV-vis for 5 h.

[5] = probe before addition of Cys, 25 mM HEPES pH 7.4
[6] = probe before addition of Cys, same buffer at pH 8.0

## C=CC(=O)OC1=C(/C=C/C2=[N+](CCC)c3ccccc3C2(C)C)CCC/C1=C\C=C1\N(CCC)c2ccccc2C1(C)C
[1]
  Spectra: Probe: 775 nm
  Spectra: With Cys: 515 nm

## C=CC(=O)Oc1ccc2c(c1)Oc1cc(OC(=O)C=C)ccc1C21OC(=O)c2ccccc21
[1]
  Spectra: With Cys: With Cys 490 nm

## C=CC(=O)Oc1ccc(/C=C/c2sc3ccccc3[n+]2CC)c2cccnc12
[1]
  Spectra: Probe: 387 nm
  Spectra: With Cys: 566 nm

## C=CC(=O)Oc1ccc2c(c1)OC1CCCC(=O)C1=C2 (stereo not drawn)
[1]
  Spectra: With Cys: 398 nm

## C=CC(=O)Oc1ccc2c(c1)OC1=C(/C=C/C3=[N+](C)c4ccccc4C3(C)C)CCCC1=C2
[1]
  Spectra: Probe: 582 nm
  Spectra: With Cys: 674 nm

## C=CC(=O)Oc1ccc(/C=C/c2cc[n+](C)cc2)cc1
[1]
  Spectra: Probe: 335 nm
  Spectra: With Cys: 372 nm

## C=CC(=O)Oc1ccc(/C=C/C2=CC(=C(C#N)C#N)c3ccccc3O2)cc1
[1]
  Spectra: Probe: 381 nm
  Spectra: With Cys: 557 nm

## C=CC(=O)Oc1ccc2c(c1)oc(=O)c1c(=O)oc3ccccc3c12
[1]
  Spectra: Probe: 350 nm
  Spectra: With Cys: 445 nm

## C=CC(=O)Oc1ccc2cc(/C=C/C3=[N+](C)c4c(ccc5ccccc45)C3(C)C)ccc2c1
[1]
  Spectra: With Cys: With Cys 460 nm

## C=CC(=O)Oc1ccc2c(c1)Oc1c(ccc3oc(=O)c(C(=O)OCC)cc13)C21OC(=O)c2ccccc21 (stereo not drawn)
[1]
  Spectra: Probe: 332 nm
  Spectra: With Cys: 450 nm

## C=CC(=O)Oc1ccc2cc(/C=C/C3=[N+](C)c4ccccc4C3(C)C)ccc2c1
[1]
  Spectra: Probe: 409 nm
  Spectra: With Cys: 448 nm

## C=CC(=O)Oc1ccc(/C=C/C(=O)/C=C(O)/C=C/c2ccc(OC(=O)C=C)c(OC)c2)cc1OC
[1]
  Spectra: Probe: 400 nm
  Spectra: With Cys: 427 nm

## C=CC(=O)Oc1cccc2c1C(=O)N(Cc1cccc[n+]1CC)C2=O
[1]
  Spectra: Probe: 360 nm
  Spectra: With Cys: 400 nm

## C=CC(=O)Oc1ccc2c(c1)OC1=C(/C=C/C3CC(=C(C#N)C#N)c4ccccc4O3)CCCC1=C2 (stereo not drawn)
[1]
  Spectra: Probe: 550 nm
  Spectra: With Cys: 600 nm

## CC1(C)C(/C=C/c2ccc(O)cc2)=[N+](CCCCS(=O)(=O)[O-])c2ccccc21 [LZ04, reference compound]
[2]; 25 mM HEPES pH 7.4, 1-24 μM
  ε at λmax: 36.6 mM⁻¹ cm⁻¹
  λmax: 527 nm
[2]; same buffer at pH 8.0
  ε at λmax: 45.6 mM⁻¹ cm⁻¹
  λmax: 527 nm

## C[N+]1=C(/C=C/c2ccc(O)cc2)C(C)(C)c2ccccc21.[I-] [LZ06, reference compound]
[2]; 25 mM HEPES pH 7.4, 1-24 μM
  ε at λmax: 27 to 37 mM⁻¹ cm⁻¹
  λmax: 520 nm
[2]; same buffer at pH 8.0
  ε at λmax: 37 to 53 mM⁻¹ cm⁻¹
  λmax: 520 nm

## Cc1cc(/C=C/C2=[N+](CCCCS(=O)(=O)[O-])c3ccccc3C2(C)C)cc(C)c1O [MF51]
[2]; 25 mM HEPES pH 7.4, 1-24 μM
  ε at λmax: 73.9 mM⁻¹ cm⁻¹
  λmax: 550 nm

## COc1cc(O)ccc1/C=C/C1=[N+](CCCCS(=O)(=O)[O-])c2ccccc2C1(C)C [MF52]
[2]; 25 mM HEPES pH 7.4, 1-24 μM
  ε at λmax: 70.1 mM⁻¹ cm⁻¹
  λmax: 529 nm

## COc1cc(/C=C/C2=[N+](CCCCS(=O)(=O)[O-])c3ccccc3C2(C)C)ccc1O [MF53]
[2]; 25 mM HEPES pH 7.4, 1-24 μM
  ε at λmax: 65.3 mM⁻¹ cm⁻¹
  λmax: 548 nm

## CC1(C)C(/C=C/c2ccc(O)c(S(=O)(=O)[O-])c2)=[N+](CCCCS(=O)(=O)O)c2ccccc21 [MF54]
[2]; 25 mM HEPES pH 7.4, 1-24 μM
  ε at λmax: 44.9 mM⁻¹ cm⁻¹
  λmax: 528 nm

## CC1(C)C(/C=C/c2ccc(O)c3ccccc23)=[N+](CCCCS(=O)(=O)[O-])c2ccccc21 [MF56]
[2]; 25 mM HEPES pH 7.4, 1-24 μM
  ε at λmax: 109.7 mM⁻¹ cm⁻¹
  λmax: 582 nm

## CC1(C)C(/C=C/c2ccc(O)c3ncccc23)=[N+](CCCCS(=O)(=O)[O-])c2ccccc21 [MF57]
[2]; 25 mM HEPES pH 7.4, 1-24 μM
  ε at λmax: 106.3 mM⁻¹ cm⁻¹
  λmax: 572 nm

## CC1(C)C(/C=C/c2ccc(O)cc2S(=O)(=O)[O-])=[N+](CCCCS(=O)(=O)O)c2ccccc21 [MF58]
[2]; 25 mM HEPES pH 7.4, 1-24 μM
  ε at λmax: 48.1 mM⁻¹ cm⁻¹
  λmax: 514 nm

## C=CC(=O)Oc1ccc(/C=C/C2=[N+](CCCCS(=O)(=O)[O-])c3ccccc3C2(C)C)c(OC)c1 [MF60]
[2]; [5]
  ε of long-wavelength band of probe: 2.1 mM⁻¹ cm⁻¹
  ε of short-wavelength band(s) of probe: 14.3 mM⁻¹ cm⁻¹
  λmax, long-wavelength band of probe: 530 nm
  λmax, short-wavelength band(s) of probe: 409 nm
[3]; 25 mM HEPES pH 7.4
  ε^Cys: 67.8 mM⁻¹ cm⁻¹
  λ^Cys: 529 nm
  SNR: 14
[4]
  Hydrolysis @4° C.: 9.8 ± 0.3%
  Hydrolysis @37° C.: 41.8 ± 0.9%

## C=CC(=O)Oc1ccc(/C=C/C2=[N+](CCCCS(=O)(=O)[O-])c3ccccc3C2(C)C)cc1OC [MF61]
[2]; [5]
  ε of long-wavelength band of probe: 0.4 mM⁻¹ cm⁻¹
  ε of short-wavelength band(s) of probe: 20.4 mM⁻¹ cm⁻¹
  λmax, long-wavelength band of probe: 548 nm
  λmax, short-wavelength band(s) of probe: 397 nm
[3]; 25 mM HEPES pH 7.4
  ε^Cys: 61.7 mM⁻¹ cm⁻¹
  λ^Cys: 549 nm
  SNR: 36
[4]
  Hydrolysis @4° C.: 4.8 ± 0.1%
  Hydrolysis @37° C.: 29.1 ± 1.9%

## C=CC(=O)Oc1ccc(/C=C/C2=[N+](CCCCS(=O)(=O)[O-])c3ccccc3C2(C)C)c2ccccc12 [MF62]
[2]; [5]
  ε of long-wavelength band of probe: 1.5 mM⁻¹ cm⁻¹
  ε of short-wavelength band(s) of probe: 8.5 mM⁻¹ cm⁻¹ and 7.7 mM⁻¹ cm⁻¹
  λmax, long-wavelength band of probe: 582 nm
  λmax, short-wavelength band(s) of probe: 419 nm and 287 nm
[3]; 25 mM HEPES pH 7.4
  ε^Cys: 105.3 mM⁻¹ cm⁻¹
  λ^Cys: 582 nm
  SNR: 20
[4]
  Hydrolysis @4° C.: 7.6 ± 0.5%
  Hydrolysis @37° C.: 40.4 ± 0.6%

## C=CC(=O)Oc1ccc(/C=C/C2=[N+](CCCCS(=O)(=O)[O-])c3ccccc3C2(C)C)c2cccnc12 [MF63]
[2]; [5]
  ε of long-wavelength band of probe: 2.9 mM⁻¹ cm⁻¹
  ε of short-wavelength band(s) of probe: 14.0 mM⁻¹ cm⁻¹
  λmax, long-wavelength band of probe: 572 nm
  λmax, short-wavelength band(s) of probe: 397 nm
[3]; 25 mM HEPES pH 7.4
  ε^Cys: 93.4 mM⁻¹ cm⁻¹
  λ^Cys: 572 nm
  SNR: 10
[4]
  Hydrolysis @4° C.: 9.8 ± 1.5%
  Hydrolysis @37° C.: 55.3 ± 0.7%

## C=CC(=O)Oc1ccc(/C=C/C2=[N+](CCCCS(=O)(=O)O)c3ccccc3C2(C)C)c(S(=O)(=O)[O-])c1 [MF64]
[2]; [5]
  ε of long-wavelength band of probe: 0.7 mM⁻¹ cm⁻¹
  ε of short-wavelength band(s) of probe: 8.0 mM⁻¹ cm⁻¹
  λmax, long-wavelength band of probe: 514 nm
  λmax, short-wavelength band(s) of probe: 350 nm
[3]; 25 mM HEPES pH 7.4
  ε^Cys: 32.1 mM⁻¹ cm⁻¹
  λ^Cys: 514 nm
  SNR: 14
[4]
  Hydrolysis @4° C.: 8.9 ± 0.2%
  Hydrolysis @37° C.: 45.2 ± 1.4%

## C=CC(=O)Oc1ccc(/C=C/C2=[N+](CCCCS(=O)(=O)O)c3ccccc3C2(C)C)cc1S(=O)(=O)[O-] [MF65]
[2]; [5]
  ε of long-wavelength band of probe: 1.2 mM⁻¹ cm⁻¹
  ε of short-wavelength band(s) of probe: 17.7 mM⁻¹ cm⁻¹
  λmax, long-wavelength band of probe: 528 nm
  λmax, short-wavelength band(s) of probe: 381 nm
[3]; 25 mM HEPES pH 7.4
  ε^Cys: 44.3 mM⁻¹ cm⁻¹
  λ^Cys: 528 nm
  SNR: 16
[4]
  Hydrolysis @4° C.: 7.2 ± 0.2%
  Hydrolysis @37° C.: 28.9 ± 1.4%

## Cc1cc(/C=C/C2=[N+](CCCS(=O)(=O)O)c3ccc(S(=O)(=O)[O-])cc3C2(C)C)cc(C)c1O [MF66]
[2]; 25 mM HEPES pH 7.4, 1-24 μM
  ε at λmax: 122.6 mM⁻¹ cm⁻¹
  λmax: 556 nm
[2]; same buffer at pH 8.0
  ε at λmax: 138.6 mM⁻¹ cm⁻¹
  λmax: 556 nm

## Cc1cc(/C=C/C2=[N+](C)c3ccccc3C2(C)C)cc(C)c1O [MF67]
[2]; 25 mM HEPES pH 7.4, 1-24 μM
  ε at λmax: 67.4 mM⁻¹ cm⁻¹
  λmax: 546 nm
[2]; same buffer at pH 8.0
  ε at λmax: 84.9 mM⁻¹ cm⁻¹
  λmax: 546 nm

## COc1cc(/C=C/C2=[N+](CCCCS(=O)(=O)[O-])c3ccccc3C2(C)C)cc(OC)c1O [MF68]
[2]; 25 mM HEPES pH 7.4, 1-24 μM
  ε at λmax: 70.0 mM⁻¹ cm⁻¹
  λmax: 575 nm

## C=CC(=O)Oc1c(C)cc(/C=C/C2=[N+](C)c3ccccc3C2(C)C)cc1C [MF71]
[2]; [5]
  ε of long-wavelength band of probe: 0.6 mM⁻¹ cm⁻¹
  ε of short-wavelength band(s) of probe: 29.1 mM⁻¹ cm⁻¹
  λmax, long-wavelength band of probe: 546 nm
  λmax, short-wavelength band(s) of probe: 387 nm
[2]; [6]
  ε of long-wavelength band of probe: 0.8 mM⁻¹ cm⁻¹
  ε of short-wavelength band of probe: 25.7 mM⁻¹ cm⁻¹
  λmax, long-wavelength band of probe: 546 nm
  λmax, short-wavelength band of probe: 385 nm
[3]; 25 mM HEPES pH 7.4
  ε^Cys: 33.7 mM⁻¹ cm⁻¹
  λ^Cys: 547 nm
  SNR: 48
[3]; same buffer at pH 8.0
  ε^Cys: 69.6 mM⁻¹ cm⁻¹
  λ^Cys: 547 nm
  SNR: 53**
[4]
  Hydrolysis @4° C.: 1.0 ± 0.1%
  Hydrolysis @37° C.: 2.3 ± 0.2%

## C=CC(=O)Oc1ccc(/C=C/C2=[N+](C)c3ccccc3C2(C)C)cc1 [drawing 16]
[1]
  Spectra: Probe: 384 nm
  Spectra: With Cys: 512 nm
